According to patent US12139492B2 (Endotarget Inc., priority 2021, dated 2024):
pIC50: −log10 of the molar value.

Legend:
Format in all cases: cell-based
Mino cells = experiment: Antiproliferative effect, MTS cell viability assay, Mino cells; settings: Homo sapiens, MINO, Mino mantle cell lymphoma cells; read-out: IC50 (anti-proliferation) Mino cells
Outline: (§1)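 Cells were exposed to compound at 0, 0.001, 0.01, 0.1, 1 and 10 μM for 72 h. Viability was then measured by MTS assay, reading formazan produced by metabolically active cells as absorbance at 490 nm.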

JeKo-1 cells = experiment: Antiproliferative effect, MTS cell viability assay, JeKo-1 cells; settings: Homo sapiens; JeKo-1 mantle cell lymphoma cells; read-out: IC50 (anti-proliferation) JeKO-1 cells
Outline: as §1

BTK = BTK (Homo sapiens, UniProt Q06187); experiment: BTK degradation, DC50 and Dmax of Table 1 (cell line not given); set-up: endogenous in cells; settings: for DC50: concentration giving 50% reduction of BTK expression level
Chain of BTK (Q06187 whole entry): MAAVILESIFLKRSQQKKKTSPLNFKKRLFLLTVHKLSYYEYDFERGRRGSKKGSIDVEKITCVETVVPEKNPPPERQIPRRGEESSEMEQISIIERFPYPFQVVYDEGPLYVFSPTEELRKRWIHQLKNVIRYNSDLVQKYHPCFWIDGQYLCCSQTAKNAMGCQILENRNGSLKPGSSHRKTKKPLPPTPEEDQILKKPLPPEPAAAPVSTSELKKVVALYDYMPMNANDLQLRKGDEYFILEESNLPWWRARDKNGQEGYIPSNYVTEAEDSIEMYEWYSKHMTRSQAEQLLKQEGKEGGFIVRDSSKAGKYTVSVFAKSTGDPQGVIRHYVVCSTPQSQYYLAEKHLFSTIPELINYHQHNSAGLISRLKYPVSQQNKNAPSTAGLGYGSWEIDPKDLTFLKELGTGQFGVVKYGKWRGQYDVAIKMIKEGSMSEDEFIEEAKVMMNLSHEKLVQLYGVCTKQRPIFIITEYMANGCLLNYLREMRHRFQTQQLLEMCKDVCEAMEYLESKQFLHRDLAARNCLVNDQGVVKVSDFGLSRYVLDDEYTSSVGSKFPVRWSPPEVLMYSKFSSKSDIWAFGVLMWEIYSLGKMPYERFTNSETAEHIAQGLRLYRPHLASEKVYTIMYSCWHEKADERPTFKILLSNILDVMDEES

Dmax (BTK) | DC50 (BTK) | Compound | pIC50 (Mino cells) | pIC50 (JeKo-1 cells)
> 90% | 10 to 50 nM | Nc1ncnc2c1c(-c1ccc(Oc3ccccc3)cc1)nn2C1CCN(C(=O)N2CCC(CCC3CCN(c4ccc5c(c4)C(=O)N(C4CCC(=O)NC4=O)C5=O)CC3)CC2)CC1 (centres unmarked) [Compound 101, 5-(4-(2-(1-(4-(4-amino-3-(4-phenoxyphenyl)-1H-pyrazolo[3,4-d]pyrimidin-1-yl)piperidine-1-carbonyl)piperidin-4-yl)ethyl)piperidin-1-yl)-2-(2,6-dioxopiperidin-3-yl)isoindoline-1,3-dione] | < 5.00 | < 5.00
> 75% | > 50 nM | Nc1ncnc2c1c(-c1ccc(Oc3ccccc3)cc1)nn2[C@@H]1CCCN(C(=O)N2CCC(CCCN3CCN(c4ccc5c(c4)C(=O)N(C4CCC(=O)NC4=O)C5=O)CC3)CC2)C1 (stereo partly drawn) [Compound 105, 5-(4-(3-(1-((R)-3-(4-amino-3-(4-phenoxyphenyl)-1H-pyrazolo[3,4-d]pyrimidin-1-yl)piperidine-1-carbonyl)piperidin-4-yl)propyl)piperazin-1-yl)-2-(2,6-dioxopiperidin-3-yl)isoindoline-1,3-dione] | < 5.00 | < 5.00
> 75% | > 50 nM | Nc1ncnc2c1c(-c1ccc(Oc3ccccc3)cc1)nn2[C@@H]1CCCN(C(=O)N2CCC(CCCN3CCN(c4ccc5c(c4)CN(C4CCC(=O)NC4=O)C5=O)CC3)CC2)C1 (stereo partly drawn) [Compound 106, 3-(5-(4-(3-(1-((R)-3-(4-amino-3-(4-phenoxyphenyl)-1H-pyrazolo[3,4-d]pyrimidin-1-yl)piperidine-1-carbonyl)piperidin-4-yl)propyl)piperazin-1-yl)-1-oxoisoindolin-2-yl)piperidine-2,6-dione] | < 5.00 | < 5.00
> 75% | > 50 nM | Nc1ncnc2c1c(-c1ccc(Oc3ccccc3)cc1)nn2[C@@H]1CCCN(C(=O)N2CCN(CCCN3CCN(c4ccc5c(c4)C(=O)N(C4CCC(=O)NC4=O)C5=O)CC3)CC2)C1 (stereo partly drawn) [Compound 107, 5-(4-(3-(4-((R)-3-(4-amino-3-(4-phenoxyphenyl)-1H-pyrazolo[3,4-d]pyrimidin-1-yl)piperidine-1-carbonyl)piperazin-1-yl)propyl)piperazin-1-yl)-2-(2,6-dioxopiperidin-3-yl)isoindoline-1,3-dione] | 5.00 to 6.00 | < 5.00
> 75% | > 50 nM | Nc1ncnc2c1c(-c1ccc(Oc3ccccc3)cc1)nn2[C@@H]1CCCN(C(=O)N2CCN(CCCC3CCN(c4ccc5c(c4)C(=O)N(C4CCC(=O)NC4=O)C5=O)CC3)CC2)C1 (stereo partly drawn) [Compound 109, 5-(4-(3-(4-((R)-3-(4-amino-3-(4-phenoxyphenyl)-1H-pyrazolo[3,4-d]pyrimidin-1-yl)piperidine-1-carbonyl)piperazin-1-yl)propyl)piperidin-1-yl)-2-(2,6-dioxopiperidin-3-yl)isoindoline-1,3-dione] | < 5.00 | < 5.00
> 75% | > 50 nM | Nc1ncnc2c1c(-c1ccc(Oc3ccccc3)cc1)nn2[C@@H]1CCCN(C(=O)N2CCN(CCCC3CCN(c4ccc5c(c4)CN(C4CCC(=O)NC4=O)C5=O)CC3)CC2)C1 (stereo partly drawn) [Compound 110, 3-(5-(4-(3-(4-((R)-3-(4-amino-3-(4-phenoxyphenyl)-1H-pyrazolo[3,4-d]pyrimidin-1-yl)piperidine-1-carbonyl)piperazin-1-yl)propyl)piperidin-1-yl)-1-oxoisoindolin-2-yl)piperidine-2,6-dione] | < 5.00 | < 5.00
> 75% | > 50 nM | Nc1ncnc2c1c(-c1ccc(Oc3ccccc3)cc1)nn2[C@@H]1CCCN(C(=O)N2CCN(CCCN3CCC(c4ccc5c(c4)C(=O)N(C4CCC(=O)NC4=O)C5=O)CC3)CC2)C1 (stereo partly drawn) [Compound 111, 5-(1-(3-(4-((R)-3-(4-amino-3-(4-phenoxyphenyl)-1H-pyrazolo[3,4-d]pyrimidin-1-yl)piperidine-1-carbonyl)piperazin-1-yl)propyl)piperidin-4-yl)-2-(2,6-dioxopiperidin-3-yl)isoindoline-1,3-dione] | 5.00 to 6.00 | 5.00 to 6.00
> 75% | > 50 nM | Nc1ncnc2c1c(-c1ccc(Oc3ccccc3)cc1)nn2[C@@H]1CCCN(C(=O)N2CCC(CCCC3CCN(c4ccc5c(c4)C(=O)N(C4CCC(=O)NC4=O)C5=O)CC3)CC2)C1 (stereo partly drawn) [Compound 113, 5-(4-(3-(1-((R)-3-(4-amino-3-(4-phenoxyphenyl)-1H-pyrazolo[3,4-d]pyrimidin-1-yl)piperidine-1-carbonyl)piperidin-4-yl)propyl)piperidin-1-yl)-2-(2,6-dioxopiperidin-3-yl)isoindoline-1,3-dione] | 5.00 to 6.00 | < 5.00
> 75% | > 50 nM | Nc1ncnc2c1c(-c1ccc(Oc3ccccc3)cc1)nn2[C@@H]1CCCN(C(=O)N2CCC(CCCN3CCC(c4ccc5c(c4)C(=O)N(C4CCC(=O)NC4=O)C5=O)CC3)CC2)C1 (stereo partly drawn) [Compound 115, 5-(1-(3-(1-((R)-3-(4-amino-3-(4-phenoxyphenyl)-1H-pyrazolo[3,4-d]pyrimidin-1-yl)piperidine-1-carbonyl)piperidin-4-yl)propyl)piperidin-4-yl)-2-(2,6-dioxopiperidin-3-yl)isoindoline-1,3-dione] | 5.00 to 6.00 | < 5.00

Further lines, the compound ahead of its results:

Compound | Dmax (BTK) | DC50 (BTK) | pIC50 (Mino cells) | pIC50 (JeKo-1 cells)
Nc1ncnc2c1c(-c1ccc(Oc3ccccc3)cc1)nn2C1CCN(C(=O)N2CCN(CCN3CCC(c4ccc5c(c4)C(=O)N(C4CCC(=O)NC4=O)C5=O)CC3)CC2)CC1 (centres unmarked) [Compound 99, 5-(1-(2-(4-(4-(4-amino-3-(4-phenoxyphenyl)-1H-pyrazolo[3,4-d]pyrimidin-1-yl)piperidine-1-carbonyl)piperazin-1-yl)ethyl)piperidin-4-yl)-2-(2,6-dioxopiperidin-3-yl)isoindoline-1,3-dione] | > 90% | 10 to 50 nM | < 5.00 | 5.00 to 6.00
Nc1ncnc2c1c(-c1ccc(Oc3ccccc3)cc1)nn2C1CCN(C(=O)N2CCN(CCN3CCC(c4ccc5c(c4)CN(C4CCC(=O)NC4=O)C5=O)CC3)CC2)CC1 (centres unmarked) [Compound 100, 3-(5-(1-(2-(4-(4-(4-amino-3-(4-phenoxyphenyl)-1H-pyrazolo[3,4-d]pyrimidin-1-yl)piperidine-1-carbonyl)piperazin-1-yl)ethyl)piperidin-4-yl)-1-oxoisoindolin-2-yl)piperidine-2,6-dione] | > 90% | 10 to 50 nM | 5.00 to 6.00 | 5.00 to 6.00
Nc1ncnc2c1c(-c1ccc(Oc3ccccc3)cc1)nn2C1CCN(C(=O)N2CCC(CCC3CCN(c4ccc5c(c4)CN(C4CCC(=O)NC4=O)C5=O)CC3)CC2)CC1 (centres unmarked) [Compound 102, 3-(5-(4-(2-(1-(4-(4-amino-3-(4-phenoxyphenyl)-1H-pyrazolo[3,4-d]pyrimidin-1-yl)piperidine-1-carbonyl)piperidin-4-yl)ethyl)piperidin-1-yl)-1-oxoisoindolin-2-yl)piperidine-2,6-dione] | > 90% | 10 to 50 nM | 5.00 to 6.00 | < 5.00
Nc1ncnc2c1c(-c1ccc(Oc3ccccc3)cc1)nn2C1CCN(C(=O)N2CCC(CCN3CCC(c4ccc5c(c4)C(=O)N(C4CCC(=O)NC4=O)C5=O)CC3)CC2)CC1 (centres unmarked) [Compound 103, 5-(1-(2-(1-(4-(4-amino-3-(4-phenoxyphenyl)-1H-pyrazolo[3,4-d]pyrimidin-1-yl)piperidine-1-carbonyl)piperidin-4-yl)ethyl)piperidin-4-yl)-2-(2,6-dioxopiperidin-3-yl)isoindoline-1,3-dione] | > 90% | 10 to 50 nM | < 5.00 | 5.00 to 6.00
Nc1ncnc2c1c(-c1ccc(Oc3ccccc3)cc1)nn2C1CCN(C(=O)N2CCC(CCN3CCC(c4ccc5c(c4)CN(C4CCC(=O)NC4=O)C5=O)CC3)CC2)CC1 (centres unmarked) [Compound 104, 3-(5-(1-(2-(1-(4-(4-amino-3-(4-phenoxyphenyl)-1H-pyrazolo[3,4-d]pyrimidin-1-yl)piperidine-1-carbonyl)piperidin-4-yl)ethyl)piperidin-4-yl)-1-oxoisoindolin-2-yl)piperidine-2,6-dione] | > 90% | 10 to 50 nM | 5.00 to 6.00 | 5.00 to 6.00
Nc1ncnc2c1c(-c1ccc(Oc3ccccc3)cc1)nn2[C@@H]1CCCN(C(=O)N2CCN(CCCN3CCN(c4ccc5c(c4)CN(C4CCC(=O)NC4=O)C5=O)CC3)CC2)C1 (stereo partly drawn) [Compound 108, 3-(5-(4-(3-(4-((R)-3-(4-amino-3-(4-phenoxyphenyl)-1H-pyrazolo[3,4-d]pyrimidin-1-yl)piperidine-1-carbonyl)piperazin-1-yl)propyl)piperazin-1-yl)-1-oxoisoindolin-2-yl)piperidine-2,6-dione] | > 75% | > 50 nM | 5.00 to 6.00 | 5.00 to 6.00
Nc1ncnc2c1c(-c1ccc(Oc3ccccc3)cc1)nn2[C@@H]1CCCN(C(=O)N2CCN(CCCN3CCC(c4ccc5c(c4)CN(C4CCC(=O)NC4=O)C5=O)CC3)CC2)C1 (stereo partly drawn) [Compound 112, 3-(5-(1-(3-(4-((R)-3-(4-amino-3-(4-phenoxyphenyl)-1H-pyrazolo[3,4-d]pyrimidin-1-yl)piperidine-1-carbonyl)piperazin-1-yl)propyl)piperidin-4-yl)-1-oxoisoindolin-2-yl)piperidine-2,6-dione] | > 75% | > 50 nM | 5.00 to 6.00 | 5.00 to 6.00
Nc1ncnc2c1c(-c1ccc(Oc3ccccc3)cc1)nn2[C@@H]1CCCN(C(=O)N2CCC(CCCC3CCN(c4ccc5c(c4)CN(C4CCC(=O)NC4=O)C5=O)CC3)CC2)C1 (some centres unmarked) [Compound 114] | > 75% | > 50 nM | 5.00 to 6.00 | 5.00 to 6.00
